Data taken from patent US20250115739A1, “COMPOUND, RUBBER BLEND CONTAINING THE COMPOUND, VEHICLE TIRE COMPRISING THE RUBBER BLEND IN AT LEAST ONE COMPONENT, PROCESS FOR PREPARING THE COMPOUND, AND USE OF THE COMPOUND AS AN ANTI-AGING AGENT AND/OR ANTIOXIDANT” (Continental Reifen Deutschland GmbH, priority 2022, published 2025).

Test: Measurement of oxidation induction time (OIT) by DSC
Settings: for Time [min] at 180° C. (time to oxidation, oxidation induction time): isothermal 180° C., O2 atmosphere 50 ml/min, with polyisoprene LIR-50, DSC peak
Experimental: The compound of formula III) was investigated under laboratory conditions for its potential protective effect as an aging stabilizer by measurement of the oxidation induction time.
To this end the compounds of formula III) and 6-PPD in each case together with a polymer (liquid synthetic polyisoprene (IR), LIR-50, Kuraray, weight average molecular weight distribution Mw=54 000 g/mol, glass transition temperature Tg=−63° C.) were heated at constant temperature (180° C.) until onset of oxidation (start temperature 35° C., heating to 170° C. at a heating rate of 20 K/min (kelvin per minute), heating to 180° C. at a heating rate of 1 K/min; purge gas: nitrogen (N2), volume flow 50 ml/min).
The specimen was kept under isothermal conditions at 180° C. under an N2 atmosphere for 5 minutes and the atmosphere was then switched to an 02 atmosphere (volume flow 50 ml/min).
Oxidation was determined via a peak using DSC (differential scanning calorimetry).
The time in minutes to oxidation was measured.

Row | protective effect as aging stabilizer (from OIT) (taking into account measurement accuracy of 10 minutes) | Structure (SMILES) | Time [min] at 180° C. (time to oxidation, oxidation induction time) [min]
1 | protective effect comparable to 6PPD | CC1CCC2C(C1)Nc1ccc(Nc3ccccc3)cc1C2(C)C (stereo not drawn) [Formula III), 6,9,9-trimethyl-N-phenyl-5,6,7,8,8a,9,10,10a-octahydroacridin-2-amine] | 93 ± 10
2 |  | CC(C)CC(C)Nc1ccc(Nc2ccccc2)cc1 (stereo not drawn) [Substance 6PPD, N-(1,3-dimethylbutyl)-N′-phenyl-p-phenylenediamine, reference compound] | 116 ± 10
